Legend:
BLECs = experiment: Western immunoblotting of receptors/transporters involved in Aβ peptide transport in BLECs; type: cell-based, human; details: 10 ng·mL^−1, 24 h; for downregulation of BCRP protein level compared to control / downregulation of LRP1 protein level compared to control: normalized to β-actin
Procedure: (§1) Each condition was studied in triplicate.
After 24 h of treatments with or without proinflammatory cytokines, BLECs were washed twice with cold RH buffer and scraped with 70 μL of RIPA 1X lysis buffer (10 mM Tris-Cl (pH 8.0), 1 mM EDTA, 0.5 mM EGTA, 1% Triton X-100, 0.1% sodium deoxycholate, 0.1% SDS, 140 mM NaCl) (Merck Millipore, Burlington, MA, USA) or UT4 lysis buffer (7M Urea, 2M Thiourea, 4% CHAPS), both supplemented with a cocktail of phosphatase and protease inhibitors (1% protease inhibitors cocktail #P8340; 1% phosphatase inhibitors cocktail 1 P2850; 1% phosphatase inhibitors cocktail 2 #P5726; 1% protease inhibitors cocktail #P8340) purchased from Sigma-Aldrich (Lyon, France). Then, a centrifugation at 10,000 rpm for 10 min at 4 °C was achieved to save the supernatant of the lysate. This was later sonicated two times for 5 s on ice. The concentration of the protein lysate was quantified using the Bradford method (#5000006; rad, Munich, Germany). The protein samples were then stored at −20 °C.
20 μg of total protein was mixed with Laemmli 4X (#1610747; Biorad, Munich, Germany) supplemented with β-mercaptoethanol (Sigma-Aldrich, Germany). Depending on the protein target, details of the denaturation and reduction steps of the protein extract are described in Table 3. Then, the protein mixes were electrophoresed using Criterion™ TGX™ (Tris-Glycine eXtended) precast gels (Biorad, Munich, Germany) and subsequently electrotransferred to nitro-cellulose membranes (GE Healthcare, Munich, Germany). Once the previous step was completed, Tris-buffered saline 0.1% Tween 20 (TBST; 20 mM Tris-HCl, pH 8.0, 500 mM NaCl, 0.1% Tween 20) supplemented with 5% skimmed milk was added on membrane to block nonspecific binding sites for 1 h under agitation at RT. Membranes were incubated in the appropriate primary antibodies (as described in Table 3) and incubated at 4 °C overnight, except β-actin (20 min at RT).
The following morning, the membranes were rinsed with TBST three times for 5 min each under agitation, and then incubated with the horseradish peroxidase-conjugated secondary antibody anti-rabbit (1:8000, Dako/Agilent Technologies, Inc., Santa Clara, CA, USA) or secondary antibody anti-mouse (1:5000, Dako/Agilent Technologies, Inc., Santa Clara, CA, USA) for 1 h at RT. […] Quantification of the relative densities of bands was performed with TotalLab TL 100 1D Gel Analysis software (Nonlinear Dynamics, Newcastle, UK). The protein expression normalization was conducted with anti-β-actin. Studies were performed with at least three independent experiments, with at least two Western immunoblottings per experiment.

BLEC monolayer = experiment: Effect of cytokines on BLEC monolayer permeability to lucifer yellow (PeLY); type: cell-based, human; details: for increase in transcellular passage of LY through BLEC monolayer compared to control / increase in paracellular passage of LY through BLEC monolayer compared to control: 10 ng·mL^−1, 24 h; for increase in transcellular passage of LY through BLEC monolayer compared to control: PeLY 37 °C minus PeLY 4 °C; for increase in paracellular passage of LY through BLEC monolayer compared to control: PeLY at 4 °C; for PeLY of BLECs after cytokine treatment: 10 ng·mL^−1 basolateral, 24 h, LY 50 µM apical-to-basolateral, RH buffer, 37 °C, 60 min, untreated 0.54 ± 0.03, mean ± SEM
Procedure: Next, we examined the effect of TNF-α and IL-1β on BBB permeability. The physical integrity of the BLECs was monitored by measuring the rate of passage of the small hydrophilic marker lucifer yellow (LY; ~400 Da) from the upper to the lower compartment to calculate the endothelial permeability coefficient of LY (PeLY).
To discriminate the impact of TNF-α and IL-1β on these different pathways and based on our previous PeLY results obtained at 37 °C informing on the global crossing of PeLY (paracellular and transcellular), a PeLY experiment was also performed at 4 °C. […] Thus, inhibition of the transcellular transport allows us to observe only the modification on the paracellular permeability. Then, the transcellular transport of LY, corresponding to the difference between global PeLY and PeLY at 4 °C, was determined.
as §1
The BLEC monolayer integrity was evaluated after each treatment using the method described by Dehouck and colleagues. The endothelial permeability coefficient (Pe) was evaluated regarding the apical-to-basolateral transport of the LY integrity marker used at a final concentration of 50 µM in RH buffer at 37 °C. Briefly, the inserts containing BLECs were transferred to a new 12-well plate containing warm RH buffer (corresponding to the basolateral compartment), and then a volume of 500 µL of warm RH with 50 µM of LY buffer was added to the apical compartment. The inserts containing the BLECs and RH buffer with 50 µM of LY were then transferred to a new well containing warm RH every 20 min for 1 hour. […] For each condition, coculturing was performed in triplicate. To determine the PeLY values for BLECs, the slope of the clearance curves (PS = permeability × surface area product; in µL·min^−1) corresponding to the volume cleared from the apical to the basolateral compartment (in µL) for 60 min was calculated for the filters with only Matrigel coating and for those with Matrigel coating and BLECs, denoted PSf and PSt, respectively. From these values, the PS values for BLECs (PSe) were determined according to the formula “[…]”. Then, the PeLY values for BLECs (in cm·min^−1) were obtained by the calculation “PeLY = PSe/S”, with PSe in cm^3·min^−1 and S being the filter surface area (= 1.12 cm^2). The same experiment was also performed at 4 °C to block the transcellular permeability of LY and to identify only the paracellular permeability of LY. Following these experiments, the transcellular permeability can be deduced, which corresponds to the PeLY values at 37 °C subtracted by those of PeLY at 4 °C. The mass balance (in %) was determined from the amount of LY in the apical and basolateral compartment at the end of the experiment divided by the total amount initially added in the apical compartment at time zero. To be taken into consideration for the Pe determination, the mass balance should be between 80% and 120%.

Row | Substance | P-gp protein expression compared to control (BLECs) | PICALM protein expression compared to control (BLECs) | RAGE protein expression compared to control (BLECs) | downregulation of BCRP protein level compared to control (BLECs) | downregulation of LRP1 protein level compared to control (BLECs) | increase in transcellular passage of LY through BLEC monolayer compared to control (BLEC monolayer) | increase in paracellular passage of LY through BLEC monolayer compared to control (BLEC monolayer) | PeLY of BLECs after cytokine treatment (BLEC monolayer) | greater increase in paracellular passage of LY with TNF-α compared to IL-1β treatment (BLEC monolayer; both 10 ng·mL^−1, 24 h) | greater increase in transcellular passage of LY with IL-1β compared to TNF-α treatment (BLEC monolayer; both 10 ng·mL^−1, 24 h)
1 | tumor necrosis factor-α [TNF-α] | no significant change | did not affect PICALM protein expression | no significant change | 73.4% | 41.9% | 40.1% | 175.2% | 1.00 ± 0.03 × 10^−3 cm·min^−1 | 133.9% | 
2 | interleukin-1β [IL-1β] | no significant change | induced an increase of PICALM protein expression | no significant change | 49.0% | 45.2% | 94.2% | 41.3% | 0.95 ± 0.05 × 10^−3 cm·min^−1 |  | 54.2%

— PMC9499506, “TNF-α and IL-1β Modulate Blood-Brain Barrier Permeability and Decrease Amyloid-β Peptide Efflux in a Human Blood-Brain Barrier Model” (International Journal of Molecular Sciences, 2022)
